Measurements published in ChEMBL document CHEMBL3885881, “DrugMatrix”.

Organism: Rattus norvegicus
Test: DrugMatrix - Regimen: Daily Repeat
Format: toxicity, organism-based, Sprague-Dawley
Design: regimen Daily Repeat, gender Male, age 6-8 weeks
Settings: in vivo, po, route oral GAVAGE, vehicle .5 % CMC; for ABSOLUTE BASOPHIL / ABSOLUTE EOSINOPHIL / ABSOLUTE LYMPHOCYTE / ABSOLUTE MONOCYTE / ABSOLUTE SEGMENTED NEUTROPHIL / BASOPHIL / EOSINOPHIL / ERYTHROCYTE COUNT / HEMATOCRIT / HEMOGLOBIN / LEUKOCYTE COUNT / LYMPHOCYTE / MEAN CORPUSCULAR HEMOGLOBIN / MEAN CORPUSCULAR HEMOGLOBIN CONCENTRATION / MEAN CORPUSCULAR VOLUME / MONOCYTE / NEUTROPHIL / NUCLEATED RED BLOOD CELLS / PLATELET COUNT: tissue Blood; for ALANINE AMINOTRANSFERASE / ALBUMIN / ALKALINE PHOSPHATASE / ASPARTATE AMINOTRANSFERASE / BLOOD UREA NITROGEN / CARBON DIOXIDE / CHLORIDE / CHOLESTEROL / CREATINE PHOSPHOKINASE / CREATININE / GLUCOSE / LACTATE DEHYDROGENASE / LIPASE / PHOSPHORUS / POTASSIUM / SODIUM / TOTAL BILIRUBIN / TOTAL PROTEIN / URIC ACID: tissue Plasma
[1] = 40 mg/kg, 120 h, dose level Low, time 5 day
[2] = 1200 mg/kg, 72 h, dose level High, time 3 day
[3] = 1200 mg/kg, 120 h, dose level High, time 5 day

C[C@@](Cc1ccc(O)c(O)c1)(NN)C(=O)O.O [CARBIDOPA]
ABSOLUTE BASOPHIL [1]: 0 CELLS/uL
ABSOLUTE EOSINOPHIL [1]: 155.33 CELLS/uL
ABSOLUTE LYMPHOCYTE [1]: 12037.67 CELLS/uL
ABSOLUTE MONOCYTE [1]: 0 CELLS/uL
ABSOLUTE SEGMENTED NEUTROPHIL [1]: 1407 CELLS/uL
BASOPHIL [1]: 0%
EOSINOPHIL [1]: 1%
ERYTHROCYTE COUNT [1]: 5.47 x10E6/uL
HEMATOCRIT [1]: 34.83%
HEMOGLOBIN [1]: 13.23 G/DL
LEUKOCYTE COUNT [1]: 13.6 x10E3/uL
LYMPHOCYTE [1]: 88.33%
MEAN CORPUSCULAR HEMOGLOBIN [1]: 24.23 pg
MEAN CORPUSCULAR HEMOGLOBIN CONCENTRATION [1]: 38 G/DL
MEAN CORPUSCULAR VOLUME [1]: 63.7 fL
MONOCYTE [1]: 0%
NEUTROPHIL [1]: 10.67%
NUCLEATED RED BLOOD CELLS [1]: 0 /100WBC
PLATELET COUNT [1]: 1237.67 x10E3/uL
ALANINE AMINOTRANSFERASE [1]: 28.67 u/L
ALBUMIN [1]: 4.33 G/DL
ALKALINE PHOSPHATASE [1]: 366.33 u/L
ASPARTATE AMINOTRANSFERASE [1]: 83 u/L
BLOOD UREA NITROGEN [1]: 16 mg/dL
CARBON DIOXIDE [1]: 26 mmol/L
CHLORIDE [1]: 102.33 MEQ/L
CHOLESTEROL [1]: 65.67 mg/dL
CREATINE PHOSPHOKINASE [1]: 277.33 u/L
CREATININE [1]: 0.2 mg/dL
GLUCOSE [1]: 155.67 mg/dL
LACTATE DEHYDROGENASE [1]: 251 u/L
LIPASE [1]: 8.33 u/L
PHOSPHORUS [1]: 12.53 mg/dL
POTASSIUM [1]: 6.15 MEQ/L
SODIUM [1]: 144.4 MEQ/L
TOTAL BILIRUBIN [1]: 0.2 mg/dL
TOTAL PROTEIN [1]: 6.03 G/DL
URIC ACID [1]: 1.4 mg/dL
ABSOLUTE BASOPHIL [2]: 0 CELLS/uL
ABSOLUTE EOSINOPHIL [2]: 309.67 CELLS/uL
ABSOLUTE LYMPHOCYTE [2]: 11320 CELLS/uL
ABSOLUTE MONOCYTE [2]: 0 CELLS/uL
ABSOLUTE SEGMENTED NEUTROPHIL [2]: 1103.67 CELLS/uL
BASOPHIL [2]: 0%
EOSINOPHIL [2]: 2.33%
ERYTHROCYTE COUNT [2]: 5.55 x10E6/uL
HEMATOCRIT [2]: 35.43%
HEMOGLOBIN [2]: 13.47 G/DL
LEUKOCYTE COUNT [2]: 12.73 x10E3/uL
LYMPHOCYTE [2]: 88.67%
MEAN CORPUSCULAR HEMOGLOBIN [2]: 24.3 pg
MEAN CORPUSCULAR HEMOGLOBIN CONCENTRATION [2]: 38.03 G/DL
MEAN CORPUSCULAR VOLUME [2]: 63.83 fL
MONOCYTE [2]: 0%
NEUTROPHIL [2]: 9%
NUCLEATED RED BLOOD CELLS [2]: 0 /100WBC
PLATELET COUNT [2]: 1345.33 x10E3/uL
ALANINE AMINOTRANSFERASE [2]: 8.67 u/L
ALBUMIN [2]: 4.63 G/DL
ALKALINE PHOSPHATASE [2]: 300.67 u/L
ASPARTATE AMINOTRANSFERASE [2]: 64.67 u/L
BLOOD UREA NITROGEN [2]: 22.33 mg/dL
CARBON DIOXIDE [2]: 26 mmol/L
CHLORIDE [2]: 99 MEQ/L
CHOLESTEROL [2]: 92.33 mg/dL
CREATINE PHOSPHOKINASE [2]: 315 u/L
CREATININE [2]: 0.24 mg/dL
GLUCOSE [2]: 171.33 mg/dL
LACTATE DEHYDROGENASE [2]: 80 u/L
LIPASE [2]: 8.67 u/L
PHOSPHORUS [2]: 12.73 mg/dL
POTASSIUM [2]: 6.79 MEQ/L
SODIUM [2]: 143.93 MEQ/L
TOTAL BILIRUBIN [2]: 0.17 mg/dL
TOTAL PROTEIN [2]: 6.5 G/DL
URIC ACID [2]: 1.6 mg/dL
ABSOLUTE BASOPHIL [3]: 0 CELLS/uL
ABSOLUTE EOSINOPHIL [3]: 0 CELLS/uL
ABSOLUTE LYMPHOCYTE [3]: 11666 CELLS/uL
ABSOLUTE MONOCYTE [3]: 86.67 CELLS/uL
ABSOLUTE SEGMENTED NEUTROPHIL [3]: 847.33 CELLS/uL
BASOPHIL [3]: 0%
EOSINOPHIL [3]: 0%
ERYTHROCYTE COUNT [3]: 6.03 x10E6/uL
HEMATOCRIT [3]: 37.47%
HEMOGLOBIN [3]: 14.13 G/DL
LEUKOCYTE COUNT [3]: 12.6 x10E3/uL
LYMPHOCYTE [3]: 92.33%
MEAN CORPUSCULAR HEMOGLOBIN [3]: 23.43 pg
MEAN CORPUSCULAR HEMOGLOBIN CONCENTRATION [3]: 37.7 G/DL
MEAN CORPUSCULAR VOLUME [3]: 62.1 fL
MONOCYTE [3]: 0.67%
NEUTROPHIL [3]: 7%
NUCLEATED RED BLOOD CELLS [3]: 0 /100WBC
PLATELET COUNT [3]: 1184.67 x10E3/uL
ALANINE AMINOTRANSFERASE [3]: 6.67 u/L
ALBUMIN [3]: 4.57 G/DL
ALKALINE PHOSPHATASE [3]: 323.33 u/L
ASPARTATE AMINOTRANSFERASE [3]: 44 u/L
BLOOD UREA NITROGEN [3]: 20 mg/dL
CARBON DIOXIDE [3]: 28 mmol/L
CHLORIDE [3]: 101.33 MEQ/L
CHOLESTEROL [3]: 58.67 mg/dL
CREATINE PHOSPHOKINASE [3]: 151.67 u/L
CREATININE [3]: 0.21 mg/dL
GLUCOSE [3]: 157.67 mg/dL
LACTATE DEHYDROGENASE [3]: 98 u/L
LIPASE [3]: 8 u/L
PHOSPHORUS [3]: 11.57 mg/dL
POTASSIUM [3]: 6.41 MEQ/L
SODIUM [3]: 146.5 MEQ/L
TOTAL BILIRUBIN [3]: 0.17 mg/dL
TOTAL PROTEIN [3]: 6.27 G/DL
URIC ACID [3]: 1.5 mg/dL
